Consider eight molecules from US20250290080A1, “METHODS TO PREVENT RAPID SILENCING OF GENES IN PLURIPOTENT STEM CELLS” (FUJIFILM Cellular Dynamics, Inc., priority 2021, published 2025).

The test system of data set [1] is iPSC line 01279.107. Briefly: ZsGreen expression in engineered iPSC lines in long-term culture, flow cytometry. In kind it is cell-based, human. The note with it: for ZsGreen expression in iPSC over time: culture up to seven months, E8 media/vitronectin. An excerpt: ZsGreen Constructs Integrated at the AAVS1 Safe Harbor Locus: To examine longer term expression driven by the candidate promoters in a chromosomal context, they were cloned into plasmids controlling ZsGreen fluorescent protein and targeted to the AAVS1 safe harbor locus on chromosome 19 in human iPSC (plasmid design is shown below using the CAG promoter as an example). […] Correctly targeted heterozygous clones were expanded.
Genomic Loci Suitable for Tagging to Yield Constitutive Expression: In addition to promoter-driven expression from a safe harbor, specific genes expressed in most cell-types can be tagged with a reporter gene to give constitutive expression. The genes HSP90AB1, ACTB, CTNNB1, and MYL6 were chosen for evaluation and were tagged with ZsGreen and an F2A cleavage sequence via TALEN-mediated gene editing. Correctly targeted heterozygous clones were expanded.
ZsGreen expression in iPSC: Engineered iPSC lines expressing ZsGreen fluorescent protein were maintained in culture for up to seven months (E8 media/vitronectin coated plates) and periodically checked for green expression using flow cytometry on an Accuri C6 instrument (BD).
A general note: Flow cytometry measures light scatter and fluorescence of single cells or particles in a stream.

For data set [2], the system named is iPSC-derived neuronal cells. The experiment in a line: ZsGreen expression after neuronal differentiation protocol, day 21 flow cytometry. Conditions: day 21 of differentiation. In kind it is cell-based, human. An excerpt:
(§1) Differentiation: In order to determine the stability of expression post-differentiation, the engineered lines were subjected to differentiation protocols to direct them toward either neuronal or cardiac cell types.

Data set [3] relates to iPSC-derived cardiac cells. Briefly: ZsGreen expression after cardiac differentiation protocol, day 21 flow cytometry. In kind it is cell-based, human. The note with it: day 21 of differentiation.
Excerpt: as §1

For data set [4], the system named is iPSC line 01279.107. Briefly: Luciferase expression during transient transfection of promoter-pGL3 plasmids (Dual-Luciferase Reporter Assay). In kind it is cell-based, human. Conditions: assayed one day later. An excerpt:
Promoters cloned: The following promoters were identified as being likely candidates for constitutive expression in all cell types. Some were cloned from existing plasmids (CAG, PGK, UBC-version1, EEF1A1, ACTB). […] The new promoters include RPS19, UBA52, HSP90AB1, an enlarged region of UBC (version 2), UBB, RPSA, NACA, and COX8A. Sequences were cloned into the pGL3 plasmid vector (replacing the SV40 promoter between MluI and NcoI restriction sites) to enable a comparison of promoter strength when driving the luciferase reporter gene.
Luciferase expression during transient transfection: Transient transfection was performed of the promoter-pGL3 plasmids into iPSCs to determine the strength of expression. Using a 96wp format, 50 uL of E8 media+10 uM blebbistatin was added to each well. Each plasmid was assayed in triplicate by adding 16.5 uL of the following reagent preparation. One well of a 6wp of iPSC line 01279.107 was harvested using Accutase, resuspended in 3.5 mL E8 media+10 uM blebbistatin, and 50 uL was added to each well. One day later the cells were assayed using the Dual-Luciferase Reporter Assay System (Promega).
Expression values at or above the level of the PGK promoter were desired so RPS19, UBA52, HSP90AB1, and UBC were selected for further study.
In general terms: A reporter such as luciferase makes a cellular process visible.

In data set [5] the test system is silenced CpG-free AcGFP1 clones. The experiment in a line: NaBut treatment of silenced CpG-free AcGFP1 clones, % GFP expression by flow cytometry. It counts as cell-based. On the procedure:
FIGS. 5A-5B: Silenced transgene be reactivated with NaBut treatment. A small number of cells were silenced in the CpG-free AcGPF1 cultures (<3% of cells, FIG. 3A). These silenced cells were single cell sorted and expanded to further investigate their silencing and research methods for overcoming the silencing. Two months after sorting for no GFP expression, silenced CpG-free AcGFP1 clones were treated with 1 mM, 0.5 mM, or 1 μM of NaBut. […] After a successful pilot experiment, the duration of NaBut treatment was increased to 46 days with NaBut treatment doses of 0.25 mM and 0.5 mM and the GFP expression levels were monitored over time by fluorescent microscopy and flow cytometry. The initial results were confirmed (FIGS. 5A and 5B, dark blue bar: day 8 of treatment).
However, after 5 months, a small percentage of cells were detected with no GFP expression (3%) even though the CpGs had been removed from AcGFP1. To investigate this population, clones were isolated by single cell sorting for no GFP expression. The cells were treated with sodium butyrate (NaBut), a histone deacetylase (HDAC) inhibitor capable of removing chromatin structure and inducing demethylation.

Data set [6] relates to iPSCs. The experiment in a line: Fluorescent protein transgene expression over time in engineered iPSCs (PPP1R12C/AAVS1 locus). In kind it is cell-based. An excerpt: FIGS. 1A-1D: ZsGreen expression driven by EEF1A1p is mottled in iPSCs. iPSCs 01278.103 (FIG. 1A, 1B) and 01279.107 (FIG. 1C, 1D) were engineered with EEF1A1p-ZsGreen at the PPP1R12C locus. Brightfield and Fluorescence (GFP) microscopy were used to capture the GFP expression in the cells 11 passages post-engineering (FIGS. 1A-1B) or 18 passages post-engineering (FIGS. 1C-1D).
The percent GFP expression in five clones targeted with EEF1A1p-CpG-free-AcGFP1 (FIG. 3A) and nine clones targeted with EEF1A1p-AcGFP1 (FIG. 3B) at the AAVS1 locus was monitored overtime.
FIGS. 4A-4C: Rapid silencing of AcGFP1 in iPSCs. Depiction of engineering iPSCs at the PPP1R12C locus (AAVS1 safe harbor) with three cassettes EEF1A1p-mRFP1+PGKp-Puro, EEF1A1p-AcGFP1 or EEF1A1p-CpG-Free AcGFP1. Noted within the figure are the engineered iPSC ID numbers for cell lines 8717 and 9650 which are used in further experiments throughout the document (FIG. 4A). […] After two months in culture, AcGFP1 engineered iPSCs were bulk sorted for AcGFP1 expression. Brightfield and Fluorescence (GFP) microscopy was used to capture the GFP expression in the cells 12 days post-sorting (FIG. 4B) or 23 days post-sorting (FIG. 4C).
The EEF1A1 promoter was used for expression of AcGFP1 in iPSCs at the PPP1R12C locus.

For data set [7], the system named is iPSC line 2.038. The experiment in a line: Drug resistance of iPSC line 2.038 transfected with WT PuroR vs. CpG-free PuroR plasmids. It counts as cell-based. Conditions: cassette introduced into iPSCs by electroporation. An excerpt: The CpG-free PuroR cassette was introduced into iPSCs by electroporation.

“Also recorded” adds a separate entry of the source.

On to UBA52: UBA52 promoter, SEQ ID NO:3, for which, in data set [1], the “ZsGreen expression in iPSC over time” value is listed as “stable iPSC expression over four months”. The “ZsGreen fluorescence after neuronal differentiation” value in data set [2] is “tight and stable expression”. Besides, the “ZsGreen expression after cardiac differentiation” value in data set [3] is “tight and stable expression”.

Consider “HSP90AB1 promoter: HSP90AB1 promoter, SEQ ID NO:5”, for which the “Normalized luciferase (Firefly/Renilla ratio, normalized to EEF1A1=100%)” value in data set [4] is given as about 75%.

With `CCCC(=O)[O-].[Na+]` [NaBut, sodium butyrate], the “effect on GFP expression levels over time” value in data set [5] (0.25 mM and 0.5 mM NaBut, 46 days) was “dose dependent effect”. Moreover, the “reactivation of GFP expression” value in data set [5] (1 mM, 0.5 mM, or 1 μM NaBut, nine days, flow cytometry) was “dose dependent reactivation; also recorded: dose-dependent reactivation”.

Take “HSP90AB1del400 promoter: HSP90AB1 promoter with 417 bp deletion between two ClaI sites, SEQ ID NO:4”: the “Normalized luciferase (Firefly/Renilla ratio, normalized to EEF1A1=100%)” value in data set [4] was “around 66%”. Moreover, the “ZsGreen expression in iPSC over time” value in data set [1] is “stable iPSC expression over four months”. In addition, the “ZsGreen fluorescence after neuronal differentiation” value in data set [2] is reported as “many cells with diminishing fluorescence”. Further, in data set [3], the “ZsGreen expression after cardiac differentiation” value is given as “varying amounts of expression silencing”.

On to “AcGFP1: Aequorea coerulescens green fluorescence protein DNA sequence, SEQ ID NO:13 [reference compound]”, for which the “cells with no GFP expression (silenced)” value in data set [6] (CpG-free AcGFP1 cultures, after 5 months) is listed as 3%. For the same molecule, the “stability of fluorescent protein expression over time” value in data set [6] (EEF1A1 promoter, PPP1R12C (AAVS1) locus, iPSCs in culture) is “not maintained overtime; also recorded: did not retain consistent expression”.

Take RPS19: RPS19 promoter, SEQ ID NO:2: in data set [1], the “ZsGreen expression in iPSC over time” value is “stable iPSC expression over four months”. For the same molecule, in data set [1] (out to seven months in culture), the “ZsGreen expression in iPSC at seven months” value is listed as “some silencing”. The “ZsGreen fluorescence after neuronal differentiation” value in data set [2] is “tight and stable expression”. Moreover, in data set [3], the “ZsGreen expression after cardiac differentiation” value is given as “varying amounts of expression silencing”.

B1: CpG-free PuroRv1: CpG-free puromycin resistance gene sequence, SEQ ID NO:15 (nucleic acid)
DNA: ATGACTGAATACAAACCAACTGTTAGACTGGCAACTAGAGATGATGTTCCAAGAGCAGTTAGAACCCTGGCTGCTGCATTTGCTGACTACCCTGCAACCAGACACACTGTGGACCCAGACAGACACATTGAAAGAGTGACTGAACTGCAGGAGCTGTTCCTGACCAGAGTGGGCCTGGACATTGGCAAAGTGTGGGTGGCAGATGATGGTGCTGCTGTGGCAGTGTGGACCACCCCTGAATCTGTTGAAGCTGGTGCAGTGTTTGCTGAGATTGGCCCAAGAATGGCAGAACTGTCTGGCAGCAGACTGGCAGCACAACAGCAGATGGAAGGTCTGCTGGCACCACACAGACCAAAAGAACCTGCTTGGTTCCTGGCAACTGTGGGTGTGAGCCCTGACCACCAGGGTAAGGGCCTGGGCTCTGCAGTGGTGCTGCCTGGTGTGGAAGCAGCTGAAAGAGCAGGTGTGCCTGCTTTCCTGGAGACCTCAGCTCCAAGAAACCTGCCTTTCTATGAAAGACTGGGCTTCACTGTGACTGCTGATGTGGAAGTGCCAGAAGGCCCAAGAACTTGGTGCATGACTAGAAAACCAGGTGCTTGATAATGA
modifications: misc_feature 1..606 Synthetic promotor sequence
Consider B1, for which the drug resistance conferred entry in data set [7] is listed as “capable of conferring drug resistance”.

B2: PuroRv2: CpG-free puromycin resistance gene version 2, SEQ ID NO:16 (nucleic acid)
DNA: ATGACTGAATACAAACCAACTGTTAGACTGGCAACTAGAGATGATGTTCCAAGAGCAGTTAGAACCCTGGCTGCTGCATTTGCTGACTACCCTGCAACCAGACACACTGTGGACCCAGACAGACACATTGAAAGAGTGACTGAACTGCAGGAGCTGTTCCTGACCAGAGTGGGCCTGGACATTGGCAAAGTGTGGGTGGCAGATGATGGTGCTGCTGTGGCAGTGTGGACCACCCCTGAATCTGTTGAAGCTGGTGCAGTGTTTGCTGAGATTGGCCCAAGAATGGCAGAACTGTCTGGCAGCAGACTGGCAGCACAACAGCAGATGGAAGGTCTGCTGGCACCACACAGACCAAAAGAACCTGCTTGGTTCCTGGCAACTGTGGGTGTGAGCCCTGACCACCAGGGTAAGGGCCTGGGCTCTGCAGTGGTGCTGCCTGGTGTGGAAGCAGCTGAAAGAGCAGGTGTGCCTGCTTTCCTGGAGACCTCAGCTCCAAGAAACCTGCCTTTCTATGAAAGACTGGGCTTCACTGTGACTGCTGATGTGGAATGCCCAAAGGACAGAGCAACTTGGTGCATGACTAGAAAACCAGGTGCTTGATAATGA
modifications: misc_feature 1..606 Synthetic promotor sequence
B2: in data set [7], the drug resistance conferred result is listed as “capable of conferring drug resistance”.
